US20110262451A1, “MODULATORS OF ISOVALERYL-COENZYME A DEHYDROGENASE IN THE TREATMENT OF ACNE, OF SEBORRHOEIC DERMATITIS OR OF HYPERSEBORRHOEA” (priority 2008, published 2011)

What was measured:
[1] = system: IVD; assay: qRT-PCR expression of IVD in rat sebaceous gland (epidermal split) after topical PPARgamma agonist; format: in vivo; conditions: topical 1% in acetone, T = 96 h, female FUZZY rat, relative induction versus carrier group, standardized to 18S
Experimental: (§1) • Strain: Ico: Hsd: FUZZY-fz • Gender: female • Age: 10 weeks Number per batch: 40 (8 animals per group) Treatment: Route of administration: topical • Compound/batch: PPARgamma agonist (rosiglitazone) • Doses: 1% • Carrier: acetone (001) • Duration 96 hours Method of evaluation: The animals are weighed at the beginning and at the end of the study. Skin biopsies are taken (6 samples of skin excised per rat) in order to analyze the expression of the genes (RNA extraction, reverse transcriptas and real-time PCR). The samples are stored overnight at 4° C. before incubation in 1M sodium bromide (NaBr) for 2 hours at 37° C. After incubation, the samples are separated into epidermis or dermis. The epidermal samples are stored at […] Under these conditions, the sebaceous glands are in the epidermal split. PCRs are carried out, beginning with the cDNAs originating from the epidermal splits containing sebaceous glands from control rats or rats treated with the PPARγ agonist: the mRNA is extracted using a column and quantified. The quality of the mRNAs is measured and is represented by the 18S/28S ratio. The results are standardized with respect to 18S expressed as relative induction versus untreated animals (carrier group). The statistical analysis is obtained using internal software based on a modified Monte Carlo statistical analysis.

[2] = system: PPARγ; assay: qRT-PCR expression of PPARγ in rat sebaceous gland (epidermal split) after topical PPARgamma agonist; format: in vivo; conditions: topical 1% in acetone, T = 96 h, female FUZZY rat, relative induction versus carrier group, standardized to 18S
Experimental: as §1

[3] = system: isovaleryl-coenzyme A dehydrogenase; conditions: cited from earlier work

Row | SMILES | Induction factor (IVD) [1] | Induction factor (PPARγ) [2] | Inhibition of isovaleryl-coenzyme A dehydrogenase [3]
1 | COCCOCOc1ccc2cc(C(=O)N(C)Cc3cccc(-c4ccc(CC5SC(=O)NC5=O)cc4)c3)ccc2c1 (stereo not drawn) [PPARgamma agonist, 6-(2-methoxyethoxy-methoxy)naphthalene-2-carboxylic acid [4′-(2,4-dioxothiazolidin-5-ylmethyl)biphenyl-3-ylmethyl]methyl-amide] | 0.11 | 0.11 | 
2 | C=C1C[C@@H]1C[C@H](N)C(=O)O [hypoglycine A] |  |  | inhibitor
